Measured values taken from paper PMC11595864, “Design, Synthesis, and Evaluation of Novel Thiazole-Containing Algicides Inspired by Bacillamide A” (Marine Drugs, 2024).
≈ marks a conversion by molar mass, not a printed value.

Experiments:
[1] = system: A. pacificum; assay: Growth-inhibition rate measurement at 50 mg/L, 24 h; format: cell-based, Alexandrium pacificum; conditions: Alexandrium pacificum, read-out: inhibition rate against A. pacificum
Experimental: (§1) P. minimum, A. pacificum, and S. costatum were purchased from Guangyu Biological Technology Co., Ltd. (Shanghai, China). The algae strain was cultured in F/2 medium ((12 h light: 12 h dark cycle), 20 ± 1 °C, 70 μmol m^−2 s^−1). Purchased algae were transferred to sterile conical flasks for culture; after the algae proliferation was stabilized, the expanded culture was next carried out following standard conditions.
(§2) The stock solutions of bacillamide A and different BDs were prepared in dimethyl sulfoxide (DMSO) with the requisition amount. […] The controls received the same volume of DMSO. The inhibitory activities of bacillamide A, different BDs, and positive controls were screened by 96 well microtiter plates at different concentrations. Inhibition ratios (IRs) of cupric sulfate (50 mg/L, positive control), bacillamide A (50 mg/L), and BDs (50 mg/L) were calculated on algae using Equation (1). (1) IR=Cc0-Cex/Cc0×100%
(§3) The CC0 and Cex, respectively, represent the algal densities of the control and experimental groups.

[2] = system: zebrafish; assay: Zebrafish acute toxicity assay; format: in vivo; conditions: for Survival percent: zebrafish
Experimental: Zebrafish acute toxicity of bacillamide A and synthesized BDs were evaluated at 0.1 mg/L, 1 mg/L, and 10 mg/L, respectively. Diuron and CuSO4 were used as positive controls. The commercial zebrafish (body length > 3.0 cm) were domesticated in aerated tap water for 24 h, fed once daily for seven consecutive days, and stopped being fed before the experiment.
4. Acute toxicity table S1.
Compound Concentration Survival percent Acute
aAccording to the Guide for Environmental Safety Assessment of Chemical Pesticides
4 groups and treated with different compounds for 96 h.

[3] = system: S. costatum; assay: Growth-inhibition rate measurement at 50 mg/L, 24 h; format: cell-based, Skeletonema costatum; conditions: for inhibition at 50 µg/mL: Skeletonema costatum, read-out: inhibition rate against S. costatum
Experimental: as §1, §2, §3

[4] = system: A. pacificum; assay: Algicidal activity assay, EC50; format: cell-based, Alexandrium pacificum; conditions: for EC50: Alexandrium pacificum, Mean ± SD, n = 3
Experimental: as §1
(§4) Copper sulfate and Diuron were used as the positive controls. EC50 values were calculated according to the equation of the quantity–effect relationship in Equation (2) using the Hill model of Graph Pad Prism software (8.0.2). (2) Y=Bottom+(Top-Bottom)/1+10^(Log EC50-X)×Hill Slope
(§5) The X and Y values represent the concentration (mg/L) and response values of the control and experimental groups, respectively. The Top, Bottom, and Hill Slope represent the maximum response, minimum response, and the curve slope, respectively. The EC50 represents half of the maximum effective concentration.

[5] = system: P. minimum; assay: Algicidal activity assay, EC50; format: cell-based, Prorocentrum minimum; conditions: for EC50: Prorocentrum minimum, Mean ± SD, n = 3, read-out: EC50 P. minimum
Experimental: as §1, §4, §5

[6] = system: S. costatum; assay: Algicidal activity assay, EC50; format: cell-based, Skeletonema costatum; conditions: for EC50: Skeletonema costatum, Mean ± SD, n = 3, read-out: EC50 S. costatum
Experimental: as §1, §4, §5

[7] = system: P. minimum; assay: Growth-inhibition rate measurement at 50 mg/L, 24 h; format: cell-based, Prorocentrum minimum; conditions: Prorocentrum minimum, read-out: inhibition rate against P. minimum
Experimental: as §1, §2, §3

[8] = system: P. minimum; assay: MDA level (thiobarbituric acid assay kit); format: cell-based, Prorocentrum minimum; conditions: 10 mg/L, 72 h, versus control (DMSO)
Experimental: (§6) P. minimum, S. costatum, and A. pacificum cells were cultured in F/2 medium. All flasks were cultivated under 12 h of light: 12 h of dark and 70 μmol m^−2 s^−1 at 20 ± 1 °C. […] Finally, the algal cells were collected and diluted in 6 mL of phosphate buffer (pH = 7.8). A small amount of quartz sand was added into the algal cells under ice bath. The obtained homogenate was next poured into a centrifuge tube and centrifuged at 5000 r/min for 25 min at 4 °C. The obtained supernatant was placed in the refrigerator at 4 °C for the next step experiment.
(§7) The malondialdehyde (MDA) assay kit was purchased from Lvyuandade Biochemical Co, Ltd., Beijing, China. The MDA parameter was monitored according to the procedure provided by the manufacturer. A total of 1 mL of algal extract was mixed with thiobarbituric acid solution (2 mL, 0.6%). The solution was sealed and kept in a boiling water bath for 15 min, followed by being cooled and centrifuged at 4500 r/min for 10 min. The absorbance values of collected supernatant were measured and calculated by the Formula (3) at 600 nm, 532 nm, and 450 nm:MDA content (nmol∙mgprot^−1) = 6.45 × (A532 − A600) − 0.56 × A450(3)

[9] = system: A. pacificum; assay: Observation of cellular morphology (optical microscope); format: cell-based, Alexandrium pacificum; conditions: 10 mg/L, 4 h
[10] = system: PSII in P. minimum; assay: Quantum yield Fv/Fm of PSII; format: cell-based, Prorocentrum minimum; conditions: 10 mg/L, 72 h, versus negative control
Experimental: as §6
(§8) Fv/Fm values were determined by using AquaPen handheld algae fluorescence meter (Nanjing Mingao Instrument Co., Ltd., Nanjing, China). The algae cells were darkened for 30 min and Fv/Fm values were measured.

[11] = system: P. minimum; assay: Observation of cellular morphology (optical microscope, SEM); format: cell-based, Prorocentrum minimum; conditions: 10 mg/L, 4 h
Experimental: (§9) There were morphological changes of algae cells treated by bacillamide A, BDs, and the positive control (CuSO4). […] Cell samples were centrifuged at 12,000 rpm for 10 min, collected, fixed, gradient-dehydrated, and freeze-dried after gold coating following the reported procedure. The SEM analyses were performed by scanning electron microscopy (SEM, JSM-7900F, […], Tokyo, Japan).

[12] = system: PSII in S. costatum; assay: Quantum yield Fv/Fm of PSII; format: cell-based, Skeletonema costatum; conditions: 10 mg/L, 72 h, versus negative control
Experimental: as §6, §8

[13] = system: S. costatum; assay: Observation of cellular morphology (optical microscope, SEM); format: cell-based, Skeletonema costatum; conditions: 10 mg/L, 4 h
Experimental: as §9

[14] = system: S. costatum; assay: ROS level (DCFH-DA fluorescent probe assay); format: cell-based, Skeletonema costatum; conditions: 10 mg/L, 72 h
Experimental: as §6
(§10) The reactive oxygen species (ROS) assay kit was purchased from SolarBio Co., Ltd., Beijing, China. The 2′,7′-dichlorodihydrofluorescein diacetate (DCFH-DA) could be oxidized by reactive oxygen or nitrogen species (ROS/RNS) to generate high fluorescent 2′,7′-dichlorofluoroscein (DCF). DCF could be detected by Cyto-FLEX flow cytometry.

[15] = system: P. minimum; assay: ROS level (DCFH-DA fluorescent probe assay); format: cell-based, Prorocentrum minimum; conditions: 10 mg/L, 72 h
Experimental: as §6, §10

[16] = system: S. costatum; assay: MDA level (thiobarbituric acid assay kit); format: cell-based, Skeletonema costatum; conditions: 10 mg/L, 72 h, versus control (DMSO)
Experimental: as §6, §7

SMILES	inhibition at 50 µg/mL [1]	Survival percent ([2]; 0.1 mg/L, 0h)	Survival percent ([2]; 0.1 mg/L, 24h)	Survival percent ([2]; 0.1 mg/L, 48h)	Survival percent ([2]; 0.1 mg/L, 72h)	Survival percent ([2]; 0.1 mg/L, 96h)	Survival percent ([2]; 1 mg/L, 0h)	Survival percent ([2]; 1 mg/L, 24h)	Survival percent ([2]; 1 mg/L, 48h)	Survival percent ([2]; 1 mg/L, 72h)	Survival percent ([2]; 1 mg/L, 96h)	Survival percent ([2]; 10 mg/L, 0h)	Survival percent ([2]; 10 mg/L, 24h)	Survival percent ([2]; 10 mg/L, 48h)	inhibition at 50 µg/mL [3]	EC50 [4]	EC50 [5]	EC50 [6]	melting point	inhibition at 50 µg/mL [7]	further results
O=C(NCCc1c[nH]c2ccccc12)c1csc(-c2ccccc2)n1 [Compound 6a]	70 to 95%	100	100	100	100	100	100	83	80	80	73	100	0	0	> 70%	3.32 ± 0.79 µg/mL (≈ 9.56 µM)	1.74 ± 0.4 µg/mL (≈ 5.01 µM)	0.11 ± 0.02 µg/mL (≈ 0.317 µM)			Survival percent ([2]; 10 mg/L, 72h): 0; Survival percent ([2]; 10 mg/L, 96h): 0; fold more potent than CuSO4 ([6]; from EC50 against S. costatum): 28 fold; fold more potent than Diuron ([6]; from EC50 against S. costatum): 39 fold; fold more potent than bacillamide A ([6]; from EC50 against S. costatum): 23 fold
O=C(NCCc1c[nH]c2ccccc12)c1csc(-c2ccccc2[N+](=O)[O-])n1 [Compound 6b]																			122 to 123 °C		
CCOc1ccc(-c2nc(C(=O)NCCc3c[nH]c4ccccc34)cs2)cc1 [Compound 6c]															> 70%	2.43 ± 0.42 µg/mL (≈ 6.21 µM)	1.29 ± 0.08 µg/mL (≈ 3.3 µM)	0.51 ± 0.04 µg/mL (≈ 1.3 µM)	184 to 185 °C	70.8%	inhibition rate against S. costatum [3]: 72.6%
O=C(NCCc1c[nH]c2ccccc12)c1csc(-c2cccs2)n1 [Compound 6e]																			189 to 190 °C		
CCCCc1nc(C(=O)NCCc2c[nH]c3ccccc23)cs1 [Compound 6j]	70 to 95%	100	100	100	100	100	100	100	100	80	80	100	80	0	> 70%	0.47 ± 0.25 µg/mL (≈ 1.44 µM)	1 ± 0.11 µg/mL (≈ 3.05 µM)	0.3 ± 0.02 µg/mL (≈ 0.916 µM)		71.9%	increase of MDA levels in P. minimum [8]: 2.3 fold; cell morphology of A. pacificum, micrographs [9]: broken or damaged or both; mortality in zebrafish ([2]; 10 mg/L, treatment for more than 48 h): 100%; Survival percent ([2]; 10 mg/L, 72h): 0; Survival percent ([2]; 10 mg/L, 96h): 0; decrease of Fv/Fm of PSII in P. minimum [10]: 3 fold; cell morphology of P. minimum, micrographs [11]: broken or damaged or both; decrease of quantum yield Fv/Fm of PSII in S. costatum [12]: 27 fold; cell morphology of S. costatum, micrographs [13]: broken or damaged or both; increase of ROS levels in S. costatum [14]: 3 fold; increase of ROS levels in P. minimum [15]: 5.4 fold; inhibition rate against S. costatum [3]: 81.7%; fold more potent than natural bacillamide A, Diuron, and CuSO4 ([4]; from EC50 against A. pacificum): 3–5 fold; fold more potent than natural bacillamide A, Diuron, and CuSO4 ([5]; from EC50 against P. minimum): 3–5 fold; increase of MDA levels in S. costatum [16]: 2.2 fold
COc1ccc2[nH]cc(CCNC(=O)c3csc(-c4ccccc4)n3)c2c1 [Compound 7b]																0.72 ± 0.021 µg/mL (≈ 1.91 µM)	1.32 ± 0.38 µg/mL (≈ 3.5 µM)	0.37 ± 0.07 µg/mL (≈ 0.98 µM)	164 to 165 °C	82.3%	
